Values joined by “and” are separate entries in the source; they are usually repeats but may differ in a detail not shown here. Equal values may be shown once. Read-outs that look alike come from different tables or passages of the source. Marks after values point to notes of the source that are not given here.
How the values were obtained:
KB-PTX-15+099 = assay: Cell survival assay, KB-PTX-15+099 (paclitaxel-resistant, non-MDR); format: cell-based, human; settings: for IC50: Homo sapiens
KB-8.5 tumor = assay: Growth of tumors in nude mice, KB-8-5 xenograft; format: in vivo; settings: days 1,5,9
From the text: (§1) 2.4. Growth of Tumors in Nude Mice.

KB-8-5 (MDR1+) = assay: Cell survival assay (SRB), KB-8-5 (MDR1+); settings: for IC50: Homo sapiens
A549 = assay: Cell survival assay (SRB), A549; format: cell-based; settings: Homo sapiens
From the text: Cells lines with previously known mechanisms of resistance. […] Res. 8: 207-218,1996); KB-3-1 (parental derived from an epidermoid carcinoma), KB-8.5, KB-V1 (Akiyama S-I, Fojo A, Hanover J A, Pastan I, Gottesman M M. Isolation and genetic characterization of human KB cell lines resistant to multiple drugs. Somatic Cell Mol. Gen., 11: 117-126,1985; Shen D-W, Cardarelli C, Hwang J, Cornwell M, Richert N, Ishii S, Pastan I, Gottesman MM. […] J. Biol. Chem., 261: 7762-7770, 1986); and HL-60 (parental derived from human leukemia) and HL60/AR (McGrath T., Center M. S. Adriamycin resistance in HL60 cells in the absence of detectable P-glycoprotein. Biochem. Res. Commun., 145:1171-1176,1987); A549 and A549.EpoB40 (He L., Yang C.-P.H., Horwitz S. B. Mutations in p-tubulin map to domains involved in regulation of microtubule stability in epothilone-resistant cell lines. Molecular Cancer Therapeutics. 1: 3-10, 2001). HCT-15 human colon carcinoma and DLD-1 human colon carcinoma are obtained from American Tissue Culture Collection. The MX-1W carcinoma is a Wyeth variant orginally obtained as MX-1 breast carcinoma from the National Cancer Institute. Cell lines selected for resistance to Representative Example 129. […]
2.2. […] Absorbance is read on a Victor V multi-label plate reader (Perkin Elmer, Gaithersburg, Md.).

SK-Mel-2 = assay: Cell survival assay (SRB), SK-Mel-2; format: cell-based; settings: Homo sapiens
Procedure: (§2) 2.2. Cell Survival Assay: Standard Pharmacological Test Procedure. […] Compounds are incubated with cells for 3 days.

[1] = test system: Human Epidermoid Carcinoma KB-3-1; assay: Growth of tumors in nude mice, KB-3-1 xenograft; format: in vivo; settings: for % T/C on day 7 / % T/C on day 14 / % T/C on day 21: KB-3-1, days 1,5,9
Procedure: as §1
In these experiments, xenografts are implanted subcutaneously into the flanks of nude mice. […] Relative tumor mass compared to controls are assessed during the 21-day post-staging period.
Groups of 5 female nu/nu mice are injected with 1.5×10^6 KB-3-1 (A) or Lox cells (B). […] Relative tumor growth is determined during the experiment and % T/C calculated. Statistical analyses are Student's t-test of treated time points vs. vehicle (*, P<0.05; **, P<0.01)

Panc1 = assay: Cell survival assay (SRB), Panc1; format: cell-based; settings: Homo sapiens, PANC-1, 72 h
Procedure: as §2

NCI-H1299 = assay: Cell survival assay (SRB), NCI-H1299; format: cell-based; settings: Homo sapiens
Procedure: as §2

Colo205 = assay: Cell survival assay (SRB), Colo205; format: cell-based; settings: Homo sapiens, COLO 205, 72 h
Procedure: as §2

tumor cell lines = assay: cells; format: cell-based
From the text: (§3) Cells lines with previously known mechanisms of resistance. […] Res. 8: 207-218,1996); KB-3-1 (parental derived from an epidermoid carcinoma), KB-8.5, KB-V1 (Akiyama S-I, Fojo A, Hanover J A, Pastan I, Gottesman M M. Isolation and genetic characterization of human KB cell lines resistant to multiple drugs. Somatic Cell Mol. Gen., 11: 117-126,1985; Shen D-W, Cardarelli C, Hwang J, Cornwell M, Richert N, Ishii S, Pastan I, Gottesman MM. […] J. Biol. Chem., 261: 7762-7770, 1986); and HL-60 (parental derived from human leukemia) and HL60/AR (McGrath T., Center M. S. Adriamycin resistance in HL60 cells in the absence of detectable P-glycoprotein. Biochem. Res. Commun., 145:1171-1176,1987); A549 and A549.EpoB40 (He L., Yang C.-P.H., Horwitz S. B. Mutations in p-tubulin map to domains involved in regulation of microtubule stability in epothilone-resistant cell lines. Molecular Cancer Therapeutics. 1: 3-10, 2001). HCT-15 human colon carcinoma and DLD-1 human colon carcinoma are obtained from American Tissue Culture Collection. The MX-1W carcinoma is a Wyeth variant orginally obtained as MX-1 breast carcinoma from the National Cancer Institute. Cell lines selected for resistance to Representative Example 129. KB-3-1 cells are selected for resistance to Example 129 by chronically exposing cells to increasing concentrations of Example 129.
(§4) 2.2. Cell Survival Assay: Standard Pharmacological Test Procedure. The concentration of candidate inhibitor required to inhibit 50% of cell growth (IC50) is done according to previously reported methods. […] Compounds are serially diluted into media as 2× stocks and 100 μl added to cells in duplicate. Compounds are incubated with cells for 3 days. At the end of the incubation period the sulforhodamine B (SRB) assay, which measures protein content as an assessment of cell survival, is performed as described previously (Skehan P, Storeng R, Scudiero D, Monks A, McMahon J, Vistica D, Warren J T, Bokesch H, Kenney S, Boyd MR. New calorimetric cytotoxicity assay for anticancer-drug screening. J Natl Cancer Inst 1990 Jul 4;82(13):1107-12) with some modification as follows. For KB-3-1 cells with 20% FCS, media is gently decanted and replaced with 200 μl of serum-free media mixed with cold 50% TCA for a final concentration of 10% TCA. The plates are incubated for 1 hr at 4° C., followed by washing 5 times in cold distilled water, then air dried overnight. The fixed cells are stained for 10 min with 80 μl of 0.04% SRB solution prepared in 1% glacial acetic acid. Stain is discarded and plates washed 5 times in 1% glacial acetic acid, then air-dried until completely dry. Stained cell product is dissolved in 150 μl of 10 mM Trizma Base and placed on a shaker for 20 minutes until fully dissolved. Absorbance is read on a Victor V multi-label plate reader (Perkin Elmer, Gaithersburg, Md.).

U87 = assay: Cell survival assay (SRB), U87; format: cell-based; settings: Homo sapiens, U-87 MG, 72 h
Procedure: as §2

HL60/AR (MRP1) = assay: Cell survival assay, HL60/AR (MRP1); settings: for IC50: Homo sapiens, HL-60/AR, read-out: HL60/AR (MRP1) IC50, nM (N)
From the text: as §3, §4
J. Cell Science,113: 2011-2021, 2000). It was unknown whether the hemiasterlin family of peptides interact with these drug pumps.

[2] = HL60/AR (MRP1) or S1-M1-3.2 (MXR)

SMILES: CC(=O)O[C@H]1C(=O)[C@@]2(C)[C@H]([C@H](OC(=O)c3ccccc3)[C@]3(O)C[C@H](OC(=O)[C@H](O)[C@@H](NC(=O)c4ccccc4)c4ccccc4)C(C)=C1C3(C)C)[C@]1(OC(C)=O)CO[C@@H]1C[C@@H]2O [paclitaxel, reference compound]
- IC50 (KB-PTX-15+099; KB-PTX-15+099, Table 6, read-out: KB-PTX-15+099 IC50): 57.8 ± 9.6 nM
- resistance of KB-PTX-15+099 cells (KB-PTX-15+099; vs KB-3-1): 21 fold
- % T/C on day 6 (KB-8.5 tumor; paclitaxel 60 mg/kg IV): 63** %
- % T/C on day 14 (KB-8.5 tumor; paclitaxel 60 mg/kg IV): 86%
- IC50 (KB-8-5 (MDR1+); MDR1, 72 h, KB-85, 3 days, SRB, vehicle (DMSO), no MDR-1 inhibitor, mean of two experiments): 41.9 nM
- IC50 (KB-8-5 (MDR1+); MDR1, 72 h, read-out: IC50 + 5.0 uM MDR-1 inhibitor, KB-85, 3 days, SRB, + 5.0 uM MDR-1 inhibitor (heptanenitrile), mean of two experiments): 4.4 nM
- IC50 (KB-8-5 (MDR1+); MDR1, read-out: KB-8-5 (MDR1+) IC50, nM (N), KB-8-5, moderate MDR1 expression, Table 3): 63.3 ± 29 nM
- resistance of KB-8-5 cells (KB-8-5 (MDR1+); KB-8-5 (KB-85) vs KB-3-1, in vitro): 19 fold and 14 fold
- IC50 (A549; 72 h, A549, NSCLC, 3 days, SRB staining, read-out: IC50): 8.8 ± 3.6 nM
- IC50 (SK-Mel-2; 72 h, SK-Mel-2, melanoma, 3 days, SRB staining, read-out: IC50): 3.2 ± 1.8 nM
- % T/C on day 7 ([1]; paclitaxel 60 mg/kg IV): 5** %
- % T/C on day 14 ([1]; paclitaxel 60 mg/kg IV): 0** %
- % T/C on day 21 ([1]; paclitaxel 60 mg/kg IV): 0** %
- IC50 (Panc1; Panc1, pancreatic, 3 days, SRB staining, read-out: IC50): 28.9 nM
- IC50 (NCI-H1299; 72 h, NCI-H1299, NSCLC, 3 days, SRB staining, read-out: IC50): 37.7 ± 12.6 nM
- IC50 (Colo205; Colo205, colon, 3 days, SRB staining, read-out: IC50): 6.9 ± 2.3 nM
- IC50 (tumor cell lines; 34 tumor cell lines (Example 129); N=31 cell lines (paclitaxel); read-out: mean IC50): 80.2 nM
- IC50 (tumor cell lines; 34 tumor cell lines (Example 129); N=31 cell lines (paclitaxel); read-out: median IC50): 9 nM
- IC50 (tumor cell lines; 34 tumor cell lines (Example 129); N=31 cell lines (paclitaxel); read-out: range of IC50): 1.8 to 1590 nM
- IC50 (tumor cell lines; 72 h, average over the panel of tumor cell lines of Table 1; 3 days; read-out: AVERAGE IC50): 80.2 nM
- resistance detected in cells over-expressing MRP1 or MXR (tumor cell lines; [2]): no resistance
- IC50 (tumor cell lines; MX-1W, NCI-H1299, DLD-1, HCT-15; read-out: IC50 in cell lines expressing moderate to very high MDR1): 15 to 438 nM
- IC50 (tumor cell lines; NCI-H838, A549, HT-29, HCT-116, KB-3-1; read-out: IC50 in cell lines with undetectable or low level MDR1): 3.9 to 8.8 nM
- IC50 (U87; U87, glioblastoma, 3 days, SRB staining, read-out: IC50): 25.1 nM
- IC50 (HL60/AR (MRP1)): 5.2 nM

SMILES: CN[C@H](C(=O)N[C@H](C(=O)N(C)[C@H](/C=C(\C)C(=O)O)C(C)C)C(C)(C)C)C(C)(C)c1ccccc1 [Example 129, N,β,β-trimethyl-L-phenylalanyl-N^1-[(1S,2E)-3-carboxy-1-isopropylbut-2-enyl]-N^1,3-dimethyl-L-valinamide]
- IC50 (KB-PTX-15+099; read-out: KB-PTX-15+099 IC50 (nM)): 0.182 ± 0.028 nM
- Average Relative Resistance (RR) (KB-PTX-15+099; IC50 KB-PTX-15+099 / IC50 KB-3-1, less than 1 = increased sensitivity): (0.30)
- increased sensitivity of KB-PTX-15+099 cells (KB-PTX-15+099; vs KB-3-1): 3.4 fold
- % T/C on day 6 (KB-8.5 tumor; Example 129 1.6 mg/kg IV): 25** %
- % T/C on day 14 (KB-8.5 tumor; Example 129 1.6 mg/kg IV): 16%
- % T/C on day 21 (KB-8.5 tumor; Example 129 1.6 mg/kg IV): 47** %
- RR, relative resistance (KB-8-5 (MDR1+)): 2.4
- Ratio KB85/KB (KB-8-5 (MDR1+)): 2.4
- resistance of KB-8-5 cells (KB-8-5 (MDR1+)): 2.4-5 fold
- IC50 (KB-8-5 (MDR1+); MDR1, 72 h): 1.9 nM
- IC50 (KB-8-5 (MDR1+); MDR1, 72 h, read-out: IC50 + 5.0 uM MDR-1 inhibitor): 1.4 nM
- IC50 (KB-8-5 (MDR1+); MDR1, read-out: KB-8-5 (MDR1+) IC50, nM (N)): 2.3 nM
- IC50 (A549; A549, 72 h): 1.1 ± 0.5 nM
- IC50 (SK-Mel-2; SK-MEL-2, 72 h): 1.7 ± 0.5 nM
- growth inhibition of epidermoid KB-3-1 tumors ([1]; IV in saline, days 1, 5, 9 post-staging, 0.5-1 mg/kg, tumors 1-2 gram): > 95%
- % T/C on day 7 ([1]; Example 129 1.6 mg/kg IV): 10** %
- % T/C on day 14 ([1]; Example 129 1.6 mg/kg IV): 1** %
- % T/C on day 21 ([1]; Example 129 1.6 mg/kg IV): 23* %
- IC50 (Panc1): 2.9 ± 0.1 nM
- IC50 (NCI-H1299; NCI-H1299, 72 h): 6.8 ± 6.1 nM
- IC50 (Colo205): 1.5 ± 0.6 nM
- IC50 (tumor cell lines; 72 h, read-out: AVERAGE IC50 (nM), average over the panel of tumor cell lines of Table 1; 3 days): 2.1 ± 1.7 nM
- resistance detected in cells over-expressing MRP1 or MXR (tumor cell lines; [2]): no resistance
- IC50 (tumor cell lines; read-out: IC50 in cell lines expressing moderate to very high MDR1, MX-1W, NCI-H1299, DLD-1, HCT-15): 1.1 to 6.8 nM
- IC50 (tumor cell lines; read-out: IC50 in cell lines with undetectable or low level MDR1, NCI-H838, A549, HT-29, HCT-116, KB-3-1): 0.7 to 1.6 nM
- IC50 (tumor cell lines; read-out: mean IC50, 34 tumor cell lines (Example 129); N=31 cell lines (paclitaxel)): 2.1 ± 1.7 nM
- IC50 (tumor cell lines; read-out: median IC50, 34 tumor cell lines (Example 129); N=31 cell lines (paclitaxel)): 1.7 nM
- IC50 (tumor cell lines; read-out: range of IC50, 34 tumor cell lines (Example 129); N=31 cell lines (paclitaxel)): 0.2 to 7.3 nM
- IC50 (tumor cell lines; read-out: range of IC50; 34 tumor cell lines (Example 129); N=31 cell lines (paclitaxel)): 0.2 to 7 nM
- IC50 (U87): 2.4 ± 0.3 nM
- IC50 (HL60/AR (MRP1)): 0.245 ± 0.45 nM
- RR, relative resistance (HL60/AR (MRP1); IC50 HL60/AR / IC50 HL60): 1.2

— patent US20040121965A1, “Method of treating resistant tumors” (Wyeth Holdings Corporation, priority 2002, published 2004)
